Assay results reported in patent US11166914B2, “Tumor therapeutic agent and kit containing gemcitabine liposome composition” (FUJIFILM Corporation, priority 2015, dated 2021).
Where a name gives a salt, the structure may show the parent alone.

Experiments:
[1] = tested on: Capan-1 cells of a human pancreatic cancer cell strain; assay: Pharmacological test on Capan-1 subcutaneous transplantation tumor-bearing mouse model; assay type: in vivo, female nude mouse; details: single agent, no Abx; Gem 240 mg/kg or composition A 3 mg/kg as gemcitabine; tail vein once a week for 3 weeks from day 17
Method: The volume of a tumor was calculated using the following equation by measuring the major axis (a) and the minor axis (b) of the tumor with calipers. (a×b^2)×0.5 (where “a” is the major axis and “b” is the minor axis.) Equation: […]
Gemcitabine (hereinafter, also referred to as Gem), abraxane (hereinafter, also referred to as Abx), and a gemcitabine-contained liposome composition (hereinafter, also referred to as a composition A) were used as test substances.
Gem was prepared by dissolving gemcitabine hydrochloride (manufactured by TEVA) in physiological saline. Abx obtained by dissolving abraxane (manufactured by Celgene) in physiological saline was used. A gemcitabine-contained liposome composition prepared in Reference Example 1 was used.
1×10^7 Capan-1 cells of a human pancreatic cancer cell strain were transplanted subcutaneously into the flank of a female nude mouse to form subcutaneous tumors. The effect of controlling the subcutaneous tumor in combination administration of Abx and the composition A was evaluated using the volume of the tumor as an index. As test substances, a sucrose solution was used as a group 1, Gem was used as a group 2, a composition A was used as a group 3, Abx and Gem were respectively used as a group 4 and a group 5, and Abx and a composition A were respectively used as a group 6 and a group 7. Groups 1 to 5 are comparative examples and groups 6 and 7 are examples. All test substances were administered to the tail vein once a week from day 17 after transplantation for a total of 3 weeks.
Tukey's multiple comparisons test was performed as a statistical analysis, and a P value less than 5% among the groups was determined to indicate that there is a statistically significant difference. Graphpad Prism version 5.03 was used for data processing.

[2] = tested on: malignant tumors; details: gemcitabine single agent, cancer patients; N Engl J Med 2013, 369 (18), 1691-1703; cited from earlier work
[3] = gemcitabine single agent; background statement; cited from earlier work

## Nc1ccn([C@@H]2O[C@H](CO)[C@@H](O)C2(F)F)c(=O)n1 [Gem, gemcitabine hydrochloride]
[1]
  Number of days until tumor volume average value of 2,000 mm^3 is reached: 52 days
  Tumor regression rate from start of medication: N.R.
  Tumor volume average value on day 38 after transplantation: 1397^a) mm^3
[2]
  Efficiency of single agent to a tumor: 10%
  Median survival period: 6.7 months
[3]
  Retention time in blood: 20 min
